Results: patent US6093409A (Societe L'Oreal S.A., priority 1996, dated 2000)

Assay: "Hp-squalene" anti(singlet oxygen ^1 O2) test
Type: biochemical
Conditions: 0.03% solutions

For `COc1cc2c(CCNC(C)=O)c[nH]c2cc1O` [6-Hydroxymelatonin], the “% INHIBITION” value was ~78%.

Going from `CC1=C(/C=C/C(C)=C/C=C/C(C)=C/C=C/C=C(C)/C=C/C=C(C)/C=C/C2=C(C)C(=O)[C@@H](O)CC2(C)C)C(C)(C)C[C@H](O)C1=O` [Astaxanthin] to `CC1=C(/C=C/C(C)=C/C=C/C(C)=C/C=C/C=C(C)/C=C/C=C(C)/C=C/C2=C(C)C(=O)CCC2(C)C)C(C)(C)CCC1=O` [Cantaxanthin], the “% INHIBITION” value rises from 34% to 67%.

First: O=c1c(O)c(-c2ccc(O)c(O)c2)oc2cc(O)cc(O)c12 [Quercetin]
Second: C[C@@H]1O[C@@H](OC[C@H]2O[C@@H](Oc3c(-c4ccc(O)c(O)c4)oc4cc(O)cc(O)c4c3=O)[C@H](O)[C@@H](O)[C@@H]2O)[C@H](O)[C@H](O)[C@H]1O [Rutin]
The “% INHIBITION” value of the first is higher: 72% for the first, 51% for the second.

With `CC1=C(/C=C/C(C)=C/C=C/C(C)=C/C=C/C=C(C)/C=C/C=C(C)/C=C/C2=C(C)CCCC2(C)C)C(C)(C)CCC1` [β-Carotene] the “% INHIBITION” value was 62%.

Same assay, conditions: 0.03% solutions, comparison in words

For `COc1cc2c(CCNC(C)=O)c[nH]c2cc1O` [6-Hydroxymelatonin], the “percentage of inhibition compared with melatonin and the other reference singlet-oxygen inhibitors” value was “higher than that obtained for melatonin and the other reference singlet-oxygen inhibitors”.
